Data from patent US12258389B2, “Methods and compositions for inhibition of EGF/EGFR pathway in combination with tyrosine kinase inhibitors” (In3Bio Ltd., priority 2015, dated 2025).
Read-outs that look alike come from different tables or passages of the source.

Assays:
PC9 cells = assay: Sensitivity of parental PC9 cells to TKIs; assay type: cell-based, human
Excerpt: (§1) In the conduct of this study PC9-derived cell lines that are resistant to TKIs were utilized. […] They represent a model for the EGFR Mutated segment of the NSCLC patient population receiving first-line TKI treatment.
(§2) As described above, the PC9 cell line carries a 15 bp deletion in exon 19 of EGFR, making this cell line sensitive to TKI's. It represents a model for the EGFR Mutated segment of the NSCLC patient population receiving TKI treatment. As a part of this effort, PC9-derived cell lines resistant to TKIs were developed.

p-Akt [1] = assay: Western blot, phosphorylated Akt normalised to total Akt, PC9 cells; assay type: cell-based, human
Description: (§3) Experiment 1: In a typical standard experiment, five T-75 flasks of the cell line under study were cultured to approximately 70% confluence, washed twice with PBS and grown o/n in serum-free medium. The serum-starved cells were then washed again and treated as follows:
(§4) Treatment was for about 15 minutes.
(§5) Experiment 2: In a second experiment anti-EGF was tested only at 1 to 2 dilution. […] Treatment was prolonged to about 2 hours in this experiment.
(§6) Both EGF and anti-EGF antibodies, which used in this project were derived from an immunization study in monkeys that received 4 immunizations of the rEGF-rP64k conjugate CIMAvax-EGF vaccine formulated with Montanide adjuvant. The vaccine and resulting anti-EGF antibodies were provided by Bioven (Europe) Ltd, Cruikshank Building North, Aberdeen Biotechnology, Craibstone Aberdeen, U.K. Scotland. Antibodies for Western blotting were purchased from Santa Cruz Biotechnologies (Palo Alto, CA).
(§7) Experiment 3: In a third experiment anti-EGF was tested only at 1 to 2 dilution. […] Treatment was prolonged to about 2 hours in this experiment. […] Both EGF and anti-EGF were provided by Bioven. Antibodies for Western blotting were purchased from Santa Cruz Biotechnologies (Palo Alto, CA).
(§8) Subsequently, three kind of experiments were performed:
(§9) C. Non-Standard Conditions: In experiments “under non-standard conditions”, PC9 (4 flasks) cells were not submitted to serum starvation and activation with fetal bovine serum instead of human EGF was employed. They were washed with PBS (×2), drugs were added in medium containing 10% FBS and incubated for 2 hours.

Bmi1 = assay: Western blot, Bmi1 level, PC9 cells; assay type: cell-based, human; conditions: PC9, 24 h, gefitinib 0.5 μM, Ab1; Ctrl = 100
Description: (§10) In 5-day experiments, PC9 cells were not submitted to serum starvation but cultured with human serum.
(§11) A preliminary analysis was performed to test some of them: Notch3 cleaved (active form of Notch3), phosphor-YAP, Bmi1 and Hes1 (related to stem cells) and AXL (related to EMT transition). Also, PARP was investigated to determine if the antibodies induce apoptosis. Extracts of the PC9 cell line obtained in previous experiments were used. […] A not-so-significant down-regulation of Bmi1 was also observed.

p-ERK1/2 [2] = assay: Western blot, phosphorylated ERK1/2 normalised to total ERK1/2, PC9 cells; assay type: cell-based, human
Description: as §3, §4, §5, §6, §7, §8, §9

Notch3 truncated = assay: Western blot, truncated (cleaved) Notch3, PC9 cells; assay type: cell-based, human; conditions: PC9, 24 h, gefitinib 0.5 μM, Ab1; Ctrl = 100
Description: as §10, §11

pSTAT-3 [3] = assay: Western blot, phosphorylated STAT3 normalised to total STAT3, PC9 cells; assay type: cell-based, human
Description: as §3, §4, §5, §6, §7, §8, §9

AXL = assay: Western blot, AXL, PC9 cells; assay type: cell-based, human; conditions: PC9, 24 h, gefitinib 0.5 μM, Ab1; Ctrl = 100
Description: as §10, §11

HES1 = assay: Western blot, Hes1 level, PC9 cells; assay type: cell-based, human; conditions: PC9, 24 h, gefitinib 0.5 μM, Ab1; Ctrl = 100
Description: as §10, §11

pYAP = assay: Western blot, phospho-YAP, PC9 cells; assay type: cell-based, human; conditions: PC9, 24 h, gefitinib 0.5 μM, Ab1; Ctrl = 100
Description: as §10, §11

PARP cleaved = assay: Western blot, cleaved (truncated) PARP, PC9 cells; assay type: cell-based, human; conditions: PC9, 24 h, gefitinib 0.5 μM, Ab1 (FIG. 21)
Description: as §10, §11

Notch3 = assay: Western blot, Notch3, PC9 cells; assay type: cell-based, human; conditions: PC9, 24 h, gefitinib 0.5 μM, Ab1; Ctrl = 100
Description: as §10, §11

PARP = assay: Western blot, total PARP, PC9 cells; assay type: cell-based, human; conditions: PC9, 24 h, gefitinib 0.5 μM, Ab1; Ctrl = 100
Description: as §10, §11

PC9-ER and GR1 to GR5 = assay: cells; assay type: cell-based; conditions: Homo sapiens, PC-9/ER; PC9-ER and GR1 to GR5 resistant lines
Excerpt: as §1, §2

p-EGFR [4] = assay: Western blot, phosphorylated EGFR normalised to total EGFR, PC9 cells; assay type: cell-based, human
Description: as §3, §4, §5, §6, §7, §8
C. […]

PC9-GR1 and GR4 = assay: Sensitivity of T790M PC9-derived lines; assay type: cell-based, human
Excerpt: as §1, with “treatment. […]. These two cell lines (PC9-GR1 and GR4) are sensitive to the new generation EGFR TKI developed by Astra Zeneca (AZD9291) that can also bind to the T790M EGFR mutated protein.” for “treatment.”
as §2, with “developed. […] […]. These two cell lines (PC9-GR1 and GR4) are sensitive to the new generation EGFR TKI developed by Astra Zeneca (AZD9291) that can also bind to the T790M EGFR mutated protein.” for “developed.”

p-Akt [5] = assay: Western blot, phosphorylated Akt, PC9-GR4 (T790M positive) cells; assay type: cell-based, human; conditions: AZD9291 0.2 μM, Ab1, Ctrl = 100
Excerpt: as §2, §10

p-EGFR [6] = assay: Western blot, phosphorylated EGFR, PC9-GR4 (T790M positive) cells; assay type: cell-based, human; conditions: AZD9291 0.2 μM, Ab1, Ctrl = 100
Excerpt: as §2, §10

p-ERK1/2 [7] = assay: Western blot, phosphorylated ERK1/2, PC9-GR4 (T790M positive) cells; assay type: cell-based, human; conditions: AZD9291 0.2 μM, Ab1, Ctrl = 100
Excerpt: as §2, §10

pSTAT-3 [8] = assay: Western blot, phosphorylated STAT3, PC9-GR4 (T790M positive) cells; assay type: cell-based, human; conditions: AZD9291 0.2 μM, Ab1, Ctrl = 100
Excerpt: as §2, §10

[9] = PC9, 24 h serum starvation and drug treatment, gefitinib 0.5 μM, Ab 1/2, Control = 100
[10] = PC9, serum-starved, EGF, 15 min, gefitinib 40 nM, antibody 1/20 to 1/5 (FIG. 6)
[11] = PC9, 0% FBS, EGF-induced, 2 h, erlotinib 1 μM, Ab 1/2 dilution, Control = 100
[12] = PC9, 2 h, erlotinib 1 μM, anti-EGF, nonstandard conditions and serum starvation (FIG. 13, 14)
[13] = PC9, 2 h, AZD9291 0.2 μM, Ab1, Ctrl = 100

COc1cc2c(Oc3ccc(NC(=O)C4(C(=O)Nc5ccc(F)cc5)CC4)cc3F)ccnc2cc1OCCCN1CCOCC1 [foretinib]
IC50 (PC9 cells): in the nM range

COc1cc2ncnc(Nc3ccc(F)c(Cl)c3)c2cc1OCCCN1CCOCC1 [Gefitinib]
pAkt (p-Akt [1]; [9]): 72.6 | effect on Akt phosphorylation (p-Akt [1]; [10]): inhibited | Bmi1 (Bmi1): 100.1 | effect on Erk activation (p-ERK1/2 [2]): inactivated | effect on Erk phosphorylation (p-ERK1/2 [2]): inhibited | pERK (p-ERK1/2 [2]): 8.1 | Notch3 truncated (Notch3 truncated): 98.9 | pSTAT3 (pSTAT-3 [3]; [9]): 569.2 | effect on STAT-3 activation (pSTAT-3 [3]; PC9, nonstandard conditions (not serum-starved, 10% FBS, no EGF), 2 h, gefitinib 0.5 μM, anti-EGF 1/2 (FIG. 8)): activated | effect on STAT3 activation (pSTAT-3 [3]; PC9, serum starvation, EGF induction, 2 h, gefitinib 0.5 μM, anti-EGF 1/2 (FIG. 2, FIG. 9)): activated | effect on STAT3 phosphorylation (pSTAT-3 [3]; [10]): activated | AXL (AXL): 135.4 | Hes1 (HES1): 86.5 | p YAP (Ser 397) (pYAP): 137.6 | PARP cleavage (PARP cleaved): able to induce it | Notch3 (Notch3): 120.8 | PARP total (PARP): 110

C#Cc1cccc(Nc2ncnc3cc(OCCOC)c(OCCOC)cc23)c1 [Erlotinib, N-(3-ethynylphenyl)-6,7-bis(2-methoxyethoxy)-4-quinazolinamine]
Akt (p-Akt [1]; [11]): 0 | IC50 (PC9-ER and GR1 to GR5): 5 to 10 µM | ERK (p-ERK1/2 [2]; [11]): 0 | effect on Erk activation (p-ERK1/2 [2]; [12]): inactivated | STAT-3 (pSTAT-3 [3]; [11]): 130 | effect on STAT3 activation (pSTAT-3 [3]; [12]): activated | EGFR (p-EGFR [4]; [11]): 14.3

C=CC(=O)Nc1cc(Nc2nccc(-c3cn(C)c4ccccc34)n2)c(OC)cc1N(C)CCN(C)C [AZD9291]
pAkt (p-Akt [1]; [13]): 2.9 | sensitivity of cell lines (PC9-GR1 and GR4): sensitive | pAkt (p-Akt [5]; PC9-GR4, 2 h): 42.7 | Akt (p-Akt [5]; PC9-GR4, 24 h): 26.8 | IC50 (PC9 cells): in the nM range | pErk ½ (p-ERK1/2 [2]; [13]): 3.7 | pSTAT3 (pSTAT-3 [3]; [13]): 146.6 | pEGFR (p-EGFR [6]; PC9-GR4, 2 h): 2.5 | EGFR (p-EGFR [6]; PC9-GR4, 24 h): 138.6 | pEGFR (p-EGFR [4]; [13]): 76.3 | pErk ½ (p-ERK1/2 [7]; PC9-GR4, 2 h): 53.6 | Erk ½ (p-ERK1/2 [7]; PC9-GR4, 24 h): 20.5 | pSTAT3 (pSTAT-3 [8]; PC9-GR4, 2 h): 60 | STAT3 (pSTAT-3 [8]; PC9-GR4, 24 h): 847.5
